Literature values in patent US20080027034A1, “Ciclesonide and Syk Inhibitor Combination and Method of Use Thereof” (priority 2004, published 2008).

Key:
[1] = not given; remark: listed apart in the source
[2] = compared with budesonide

CC(C)C(=O)OCC(=O)[C@@]12O[C@H](C3CCCCC3)O[C@@H]1C[C@H]1[C@@H]3CCC4=CC(=O)C=C[C@]4(C)[C@H]3[C@@H](O)C[C@@]12C [Ciclesonide, [11β,16α(R)]-16,17-[(Cyclohexylmethylen)bis(oxy)]-11-hydroxy-21-(2-methyl-1-oxoprop-oxy)pregna-1,4-dien-3,20-dione]
metabolism by liver oxidases (liver oxidases): very high | concentration of the drug in the lungs (lungs): high | absorption after oral administration (oral administration): only moderately absorbed | plasma half-life (plasma): low | systemic activity relative to budesonide ([1]; compared with budesonide): three times lower | systemic activity ([1]; in vivo): low | anti-inflammatory activity relative to budesonide [2]: higher
